{"source": "patent US4670432A", "about": "“Pyrazolopyridine derivatives useful in treating inflammation and allergic conditions” (Beecham Group p.l.c., priority 1984, dated 1987)", "key": {"[1]": {"tested_on": "mouse sensitised to oxazolone", "assay": "Mouse Oxazolone Screen (topical anti-inflammatory activity)", "format": "in vivo", "details": "1 h before oxazolone challenge, ears weighed 24 h later", "protocol": "Compounds were tested for topical anti-inflammatory activity in a screen using the mouse sensitised to oxazolone, by a method modified from that of Dietrich and Hess [Dietrich, F. M., and Hess, R., Int. Arch. Allergy, (1970), 38, 246-259].\nMice were sensitised with oxazolone (2 mg in 20 μl ethanol) on a shaved area of the abdomen. Five days later, the animals received 10 μl THF/MeOH (1:1 v/v) on the right ear, and the test compound in the same solvent on the left ear. One hour later, the animals were challenged with 100 μg oxazolone in 10 μl acetone on each ear. Ear weights were measured 24 h later. Percentage inhibition of the inflammatory swelling refers to the increase in weight of left ears (oxazolone plus compound) compared with solvent-treated negative controls, as a proportion of the increase in weight of right ears (oxazolone alone) over similar controls."}, "cantharidin mouse ear": {"tested_on": "cantharidin mouse ear", "assay": "Mouse Cantharidin Screen (topical anti-inflammatory activity)", "format": "in vivo", "details": "applied with cantharidin, 24 h", "protocol": "Compounds were tested for topical anti-flammatory activity in a cantharidin mouse ear screen, modified from Swingle et al [Swingle, K. F., Reiter, M. J. and Schwartzmiller, D. H., Arch. Int. Pharmacodyn. (1981), 254, 168-176].\n25 μg cantharidin (in 10 μl THF/MeOH) was applied to both ears. Compound, in the same solvent, was applied at the same time, to the left ear only. Ears were weighed 24 h after cantharidin application. Percentage inhibition of the acute inflammatory swelling refers to the increase in weight of left ears (catharidin plus compound) compared with solvent-treated negative controls, as a proportion of the increase in weight of right ears (cantharidin alone) over similar controls."}, "5-Lipoxygenase": {"tested_on": "5-Lipoxygenase", "assay": "RBL-1 5-Lipoxygenase Screen", "format": "biochemical", "details": "20 μM; 10,000 g supernatant from RBL-1 cells, 29° C.", "protocol": "5-Lipoxygenase enzyme was prepared as a 10,000 g supernatant from RBL-1 cells by the method of Jakschik [Jakschik, B. A., Sun, F. F., Lee, L. M. and Steinhoff, M. M., 1980, Biochem. Biophys. Res. Comm. 95, 103]. The 10,000 g supernatant was diluted with homogenization buffer to the equivalent of 1.5-2.5×10^7 cells ml^-1 and made 2 mM with respect to CaCl2. Aliquots of 0.5 ml were then dispensed into tubes, and incubated at 29° C. with 5 γl ethanol or compound in ethanol at the desired concentration for 2 min. Then [1-^14 C] arachidonic acid was added in buffer to give a final concentration of 6.3. μm and 0.2 μCi per incubation, and the reaction continued at 29° C. for 2 min. The reaction was terminated by adding 1 ml of acetone and cooling on ice. 0.5 ml of ice cold saline and 10 μl of 2N formic acid were added, and the mixture was extracted with 2×2 ml of chloroform. The extract was stored under N2 at -20° C. until analysis by chromatography. Activity was measured as the percentage of total radioactivity found in 5-HETE and 5,12-diHETE, and inhibition calculated as the decrease in formation of the sum of these two species in compound-treated incubates relative to control incubates."}}}
{"compound": "C=CCNc1cc(C)nc2cn[nH]c12", "note": "[Example 1, 7-Allylamino-5-methyl-1H-pyrazolo[4,3-b]pyridine]", "values": [{"measurement": "% Inhibition (inflammatory swelling, ear weight)", "setting": "[1]; 200 μg/ear", "value": 62, "unit": "%"}, {"measurement": "% Inhibition (acute inflammatory swelling, ear weight)", "setting": "cantharidin mouse ear; 200 μg/ear", "value": 88, "unit": "%"}, {"measurement": "inhibition (decrease in formation of 5-HETE and 5,12-diHETE)", "setting": "5-Lipoxygenase", "value": 39, "unit": "%"}]}
{"compound": "COCCNc1cc(C)nc2c[nH]nc12", "note": "[Example 4]", "values": [{"measurement": "% Inhibition (inflammatory swelling, ear weight)", "setting": "[1]; 200 μg/ear", "value": 52, "unit": "%"}, {"measurement": "% Inhibition (acute inflammatory swelling, ear weight)", "setting": "cantharidin mouse ear; 200 μg/ear", "value": 57, "unit": "%"}]}
{"compound": "C=CCNc1ccnc2cn[nH]c12", "note": "[Example 7, 7-Allylamino-1H-pyrazolo[4,3-b]pyridine]", "values": [{"measurement": "% Inhibition (acute inflammatory swelling, ear weight)", "setting": "cantharidin mouse ear; 500 μg/ear", "value": 83, "unit": "%"}]}
{"compound": "C=CCNc1cc(C)nc2cn(C)nc12", "note": "[Example 5, 7-Allylamino-2,5-dimethyl-pyrazolo[4,3-b]pyridine]", "values": [{"measurement": "% Inhibition (inflammatory swelling, ear weight)", "setting": "[1]; 200 μg/ear", "value": 71, "unit": "%"}, {"measurement": "% Inhibition (acute inflammatory swelling, ear weight)", "setting": "cantharidin mouse ear; 200 μg/ear", "value": 68, "unit": "%"}]}
{"compound": "Cc1cc(NCCO)c2[nH]ncc2n1", "note": "[Example 3, 7-[2-Hydroxyethylamino]-5-methyl-1H-pyrazolo[4,3-b]pyridine]", "values": [{"measurement": "% Inhibition (inflammatory swelling, ear weight)", "setting": "[1]; 200 μg/ear", "value": 65, "unit": "%"}, {"measurement": "% Inhibition (acute inflammatory swelling, ear weight)", "setting": "cantharidin mouse ear; 200 μg/ear", "value": 76, "unit": "%"}]}
{"compound": "Cc1cc(NCCCO)c2[nH]ncc2n1", "note": "[Example 2, 7-[3-hydroxypropylamino]-5-methyl-1H-pyrazolo[4,3-b]pyridine]", "values": [{"measurement": "% Inhibition (inflammatory swelling, ear weight)", "setting": "[1]; 500 μg/ear", "value": 82, "unit": "%"}, {"measurement": "% Inhibition (acute inflammatory swelling, ear weight)", "setting": "cantharidin mouse ear; 200 μg/ear", "value": 82, "unit": "%"}]}
{"compound": "Cc1cc(NCCCN(C)C)c2[nH]ncc2n1", "note": "[Example 6, 7-[3-Dimethylaminopropylamino]-5-methyl-1H-pyrazolo[4,3-b]pyridine]", "values": [{"measurement": "% Inhibition (acute inflammatory swelling, ear weight)", "setting": "cantharidin mouse ear; 500 μg/ear", "value": 97, "unit": "%"}]}
